# From paper PMC3436892, “Novel African Trypanocidal Agents: Membrane Rigidifying Peptides” (PLoS ONE, 2012)
# Assays:
# [1] = test system: Bloodstream developmental forms of T. vivax; test: 2 h in vitro killing assay, T. vivax; format: cell-based, Trypanosoma vivax strain ILRAD V34; conditions: 37°C, 1×10^7 cells/mL, HMI 9 with 20 % bovine serum, hemocytometer, at concentrations similar to BSF T. brucei (Fig. 1b)
# Description: (§1) Light microscopy based trypanosome killing assays were performed as previously described in detail, [10], [21], [22]. Metacyclic Trypanosoma brucei brucei strain STIB247 were obtained from dissection of the salivary glands of infected tsetse flies. Newly hatched Glossina morsitans morsitans (24–48 h post eclosion) were fed two defibrinated horse blood meals containing 2×10^6 mL^-1 trypanosomes on two separate days. Flies were then maintained at 25°C in 75 % relative humidity and fed maintenance blood meals three times per week. Following day 20–30, flies were harvested and salivary glands were dissected out and placed into HMI 9 media containing 10 % fetal bovine serum for 30 minutes. Metacyclic cells were expelled into the media by the residual peristalsis of the salivary glands. Cells were collected via centrifugation and maintained in HMI 9 media with 20 % fetal bovine serum at 37°C in 5 % CO2 until use. Killing assays were conducted with 1×10^4 cells/mL in HMI 9 media containing 10 % fetal bovine serum. Live cells were scored via hemocytometer after 2 h incubation. Trypanosoma vivax strain ILRAD V34 and Trypanosoma congolense strain IL3000 were grown from stabilites in donor ICR mouse (Harlan, United Kingdom). […] Cells were incubated at 37°C for 2 h and live cells were scored visually via hemocytometer. […]
# [2] = test system: Bloodstream developmental forms of T. congolense; test: 2 h in vitro killing assay, T. congolense; format: cell-based, Trypanosoma congolense strain IL3000; conditions: 37°C, 1×10^7 cells/mL, HMI 9 with 20 % bovine serum, hemocytometer, at concentrations similar to BSF T. brucei (Fig. 1b)
# Description: as §1
# BSF T. b. brucei = conditions: veterinary and human pathogenic BSF T. brucei; cited from earlier work
# From the text: Specificity of SHP is mediated by a high degree of fluidity in the plasma membrane of BSF cells. […] Human cells, including erythrocytes, are refractory to SHP concentrations orders of magnitude higher than necessary to kill BSF T. brucei.
# [3] = Parallax analysis of tryptophan penetration depth; format: physicochemical; conditions: 500 nM peptide, PBS, 37°C, 22 h
# Description: The hydrocarbon penetration depth of tryptophans spaced throughout synthetic peptides corresponding to SHP-1 or SHP-3 (Table S1) was determined by parallax analysis with brominated phosphatidylcholine liposomes. Large unilamellar liposomes composed of egg phosphatidylcholine and 10 mol % 1-palmitoyl-2-(6,7-dibromo)stearoyl-sn-glycero-3-phosphocholine (shallow quencher) or 1-palmitoyl-2-(9,10-dibromo)stearoyl-sn-glycero-3-phosphocholine (deep quencher) were constructed by hydration of a thin dry lipid film with phosphate buffered saline. Resulting multilamellar liposomes were made unilameller via extrusion through polycarbonate filters with 0.1 µm pores. Peptides (500 nM) were incubated with 200 µg/ml liposomes in phosphate buffered saline at 37°C for 22 h. Tryptophan fluorescence at 357 nm was measured from at least triplicate trials in the PerkinElmer Life Sciences LS55 spectrofluorometer and an excitation wavelength of 280 nm for SHP-1 and 290 nm for SHP-2, 10 nm excitation and 9 nm emission slit widths. The distance of tryptophans from the bilayer center (ZCF) is calculated from the equation [12]: [drawing 1] Where LC1 is the distance from the center of the bilayer to the shallow quencher, in this case 10.8 Å for 6,7-dibromo-PC [25], F1 is the intensity of tryptophan in the presence of the shallow quencher and F2 is the tryptophan intensity in the presence of the deep quencher, C is the mole fraction of quencher divided by the area of individual phospholipid (70 Å^2), and L21 is the difference in the depth of the two quenchers (2.7 Å). The hydrocarbon insertion depth of tryptophans is then given by one half the bilayer thickness, 29 Å [25], minus ZCF.
# Live BSF T. b. brucei [4] = conditions: previously reported; cited from earlier work
# From the text: Treatment of BSF African trypanosomes with SHP results in multiple physiological alterations. Addition of SHP-1 to BSF trypanosomes, which were subsequently immobilized in gelatin, decreases the fraction of laterally mobile surface exposed VSG (Fig. 2c). This effect may be directly due to increased membrane rigidity, or indirectly due to a decrease in the mobility of membrane spanning proteins and potential interactions with the VSG. Another physiological consequence, that may or may not be related to membrane rigidification, is SHP-induced changes in cell motility. Previously we reported that ...
# Live BSF T. b. brucei [5] = test: Trypanosome motility scoring by DIC microscopy; format: cell-based, Trypanosoma brucei brucei; conditions: 40 µM SHP, 37°C, 1×10^7 cells/mL, HMI 9 with 10 % fetal bovine serum, DIC microscopy, at least duplicate (Fig. 2d)
# Description: All images and videos were acquired with an Axio Observer Z1 equipped with an AxioCam MRm controlled by AxioVision 4.6 software. Videos were acquired with live cells at a density of 1×10^7 cells/mL in HMI 9 media with 10 % fetal bovine serum, incubated with 40 µM SHP at 37°C. Trypanosomes were visualized at magnification 63 × and videos were recorded with 100-ms acquisition times. The motility of BSF trypanosomes was scored directly or from video playback. Trypanosome motility was classified as normal, hyperactive or constricted as described previously. An example of a trypanosome scored as normal is shown in Movie S1. […] Data in figure 2D is shown as the average of at least duplicate trials with standard deviations.
# metacyclic T. b. brucei = test: 2 h in vitro killing assay, metacyclic form; format: cell-based, Trypanosoma brucei brucei strain STIB247; conditions: 2 h incubation, 1×10^4 cells/mL, HMI 9 with 10 % fetal bovine serum, live cells scored by hemocytometer, at least duplicate (Fig. 1a)
# Description: as §1
# [6] = Circular dichroism spectroscopy; format: physicochemical
# Description: Spectra were recorded with a Jasco J-710 spectropolarimeter in a 1 mm quartz cuvette. Measurements were performed with a final concentration of 15 µM SHP-1 added from a stock of ethanol-solubilized peptide (final ethanol concentration 7.5 %) in 10 mM K2PO4, 50 mM Na2PO4, pH 7.5. Lipid associated peptide spectra were recorded with the addition of 0.1 µm unilamellar egg phosphatidylcholine liposomes at a peptide to lipid ration of 0.3. Spectra were averaged from four scans and the appropriate buffer scans were subtracted.
sequence,measurement,setting,value
"SDLGAVISLLLWGRQLFA [SHP-1, trypanocidal small hydrophobic peptide derived from an apolipoprotein, with characteristics of a secretory signal peptide]",susceptibility of BSF T. vivax to killing,[1],susceptible to killing
same,susceptibility of BSF T. congolense to killing,[2],susceptible to killing
same,susceptibility of BSF T. brucei to killing,BSF T. b. brucei,uniquely susceptible to killing
same,distance of tryptophan at position 1 from the membrane interface,"[3]; Trp-substituted variant W1, 200 µg/ml egg PC liposomes with 10 mol % 6,7- or 9,10-dibromo-PC, bilayer thickness 29 Å, at least triplicate",approximately 1.1 Å
same,distance of tryptophan at position 8 from the membrane interface,"[3]; Trp-substituted variant W8, 200 µg/ml brominated egg PC liposomes",approximately 7.8 Å
same,distance of tryptophan at position 18 from the membrane interface,"[3]; Trp-substituted variant W18, 200 µg/ml brominated egg PC liposomes",~2.0 Å
same,distance of tryptophan at position 12 from the membrane interface,"[3]; native tryptophan, 200 µg/ml brominated egg PC liposomes",~5.1 Å
same,F1/F2 ± S.D.,"[3]; ratio of tryptophan fluorescence intensity (357 nm) with shallow (6,7-dibromo-PC, F1) and deep (9,10-dibromo-PC, F2) quencher, 200 µg/ml liposomes, at least triplicate",0.9676 ± 0.0560
same,effect on motility of BSF trypanosomes,Live BSF T. b. brucei [4],initial hyperactivation followed by constricted motility and death
same,constriction of motility following hyperactivation,Live BSF T. b. brucei [5],subsequent constriction
same,hyperactivation of motility,Live BSF T. b. brucei [5],hyperactivation
same,killing activity against metacyclic T. b. brucei,metacyclic T. b. brucei,no killing activity
same,secondary structure in the presence of lipid (CD),"[6]; 15 µM peptide with 0.1 µm unilamellar egg phosphatidylcholine liposomes, peptide to lipid ratio 0.3, pH 7.5, peak 193 nm, minimum 208 nm",α-helical structure
same,secondary structure in solution (CD),"[6]; 15 µM peptide, 7.5 % ethanol, 10 mM K2PO4, 50 mM Na2PO4, pH 7.5, peak 195 nm, crossover about 205 nm, minimum 218 nm",β-sheet conformation
